# Measured values from patent publication US12251422B2, “Compositions and methods for treating neurological and other disorders” (Rush University Medical Center, priority 2018, dated 2025).
# Legend:
# Format in all cases: in vivo, mouse
# Tg-Tlr2−/− mice = test: Plaques and memory in 5×FAD mice null for Tlr2 (Tg-Tlr2−/−); conditions: 0.1 mg/kg body wt/2 d intranasal, 30 d
# Method: FIG. 24 (A-H). […] A) Tlr2−/− mice were bred with Tg (5×FAD mice) and representative PCR of Tlr2, App695 and Psen1 transgene DNA expression is shown for 6-month old non-Tg, Tg (5×FAD), Tg-Tlr2−/− (F7), and Tlr2−/− mice. Average body weight (B) and wet brain weight (C) of non-Tg, Tg, Tg-Tlr2−/−, and Tlr2−/− mice. For wet brain weight, the olfactory lobes and brainstem were removed. […] After 30 d of treatment, hippocampal sections were immunolabeled with 6E10 mAb (D). […] Mice were tested for Barnes maze (F, track plot; G, latency; H, number of errors made). Four mice (n=4) were used in each group. NS, not significant by two-sample t-tests.
# 5×FAD Tg mice [1] = test: Glial activation and NF-κB in hippocampus of 5×FAD Tg mice; conditions: 0.1 mg/kg body wt/2 d intranasal, 30 d
# Description: FIG. 5 (A-Q). […] Actin was run as loading control. […] M) Hippocampal sections were immunolabeled with 82E1 mAb. […] Arrowhead indicates 4 kDa Aβ band.
# FIG. 18 (A-B). After intranasal delivery, wtTIDM peptide suppresses the activation of NF-κB in the hippocampus of Tg mice. […] After 30 d of treatment, hippocampal extracts of all groups of mice were immunoblotted for phospho-p65 (A). Actin was run as loading control.
# FIG. 19. Intranasal delivery of wtTIDM, but not mTIDM, peptide suppresses microglial expression of iNOS in the hippocampus of Tg mice. […] After 30 d of treatment, mice were sacrificed and hippocampal sections were double-labeled for Iba-1 and iNOS. Results represent analysis of two sections from each of six different mice per group.
# (§1) B6SJL-Tg (APPSwFlLon,PSEN1*M146L*L286V) 6799Vas/J transgenic (5×FAD or termed here as Tg) mice were purchased from Jackson Laboratories (Bar Harbor, ME). […] Briefly, TIDM peptides were dissolved in 5 μl normal saline, mice were hold in supine position and saline was delivered into one nostril using a pipetman.
# Mice were anesthetized with ketamine-xylazine injectables and perfused with PBS and then with 4% (w/v) paraformaldehyde in PBS followed by dissection of the brain from each mouse for immunofluorescence microscopy (23, 59). […] The samples were mounted and observed under an Olympus IX81 fluorescence microscope. […]
# mice with CIA = test: Collagen-induced arthritis (CIA) in DBA/1J mice; conditions: 1 mg/kg body wt/d i.p. from 29 dpi
# Description: FIG. 7 (A-V). The wtTIDM, but not mTIDM, peptide protects mice from experimental allergic encephalomyelitis (EAE) and collagen-induced arthritis (CIA). […] Mice (n=6 per group in two independent experiments) were scored daily. […] On 22 dpi, general motor activities were monitored using the Ethovision XT 13.0 Open Field Activity System (Noldus) (B, heat-map images representing overall motor activities; C, distance travelled; D, rearing; E, velocity; F, acceleration) and rotorod (G). Foot print analysis (H, stride length; I, print length; J, sway length; K, toe spread) was also performed, L) CIA was induced in male DBA/1J mice by bovine type II collagen immunization and from 29 dpi, mice were treated with wtTIDM and mTIDM peptides (1 mg/kg body wt/d) via i.p. injection. Mice (n=6 per group in two independent experiments) were scored daily. […] On 60 dpi, general motor activities were monitored by Ethovision System (M, heat-map images representing overall motor activities; N, distance travelled; O, rearing; P, velocity), rotorod (Q) and grip strength (R). Foot print analysis (S, stride length; T, print length; U, sway length; V, toe spread) was also performed. Six mice (n=6 per group) were used in two independent experiments. ap<0.001 & bp<0.05 vs control; cp<0.001 & dp<0.05 vs EAE or CIA by two-sample t-tests.
# FIG. 26 (A-D). Footprint analysis of mice with CIA after treatment with wtTIDM and mTIDM peptides. On the walking track, we applied white paper strips and obtained the footprints of mice of different groups (A, control; B, CIA; C, CIA+wtTIDM; D, CIA+mTIDM) on paper using black ink. A total of 30-40 steps for each group were determined. Four different footprint measurements (SL, PL, SWL, and TS) were calculated in centimeters from the recorded prints of mice. Six mice (n=6 per group) were used in two independent experiments.
# Male DBA/1J mice (8-9 week old) were immunized intradermally at the base of the tail with 100 μg of bovine type II collagen emulsified in […] Freund's Adjuvant and M. tuberculosis H37RA. […]
# 5×FAD Tg mice [2] = test: Tau phosphorylation in hippocampus of 5×FAD Tg mice; conditions: 0.1 mg/kg body wt/2 d intranasal, 30 d
# Method: FIG. 22 (A-B). Intranasal delivery of wtTIDM, but not mTIDM, peptide decreases the phosphorylation of tau in the hippocampus of Tg mice. […] B) Bands were scanned and values (P-Tau/Tau) presented as relative to non-Tg control. Results were analyzed by two-sample t-tests.
# as §1
smiles,measurement,setting,value
"CC[C@H](C)[C@H](NC(=O)[C@H](CCCCN)NC(=O)[C@@H](NC(=O)[C@H](CCC(N)=O)NC(=O)[C@H](CCCNC(=N)N)NC(=O)[C@@H](N)CC(=O)O)[C@@H](C)CC)C(=O)N[C@@H](Cc1c[nH]c2ccccc12)C(=O)N[C@@H](Cc1ccccc1)C(=O)N[C@@H](CCC(N)=O)C(=O)N[C@@H](CC(N)=O)C(=O)N[C@@H](CCCNC(=N)N)C(=O)N[C@@H](CCCNC(=N)N)C(=O)N[C@@H](CCSC)C(=O)N[C@@H](CCCCN)C(=O)N[C@@H](Cc1c[nH]c2ccccc12)C(=O)N[C@@H](CCCCN)C(=O)N[C@@H](CCCCN)C(=O)N1CCC[C@H]1C(=O)NCC(=O)N[C@@H](C)C(=O)N[C@@H](Cc1c[nH]cn1)C(=O)N[C@@H](CCC(N)=O)C(=O)N[C@@H](CCCCN)C(=O)O [wtTIDM, drqikiwfqnrrmkwkkPGAHQK]",reduction of plaque load and improvement of spatial learning and memory in Tg-Tlr2−/− mice,Tg-Tlr2−/− mice,remained unable to do so
same,Iba-1 and phospho-p65 in the hippocampus,5×FAD Tg mice [1],suppression
same,expression of iNOS in the hippocampus,5×FAD Tg mice [1],suppressed
same,clinical symptoms of CIA,mice with CIA,decreased
same,footprint behavior in CIA mice,mice with CIA; 60 dpi,improved
same,locomotor activities in CIA mice,mice with CIA; 60 dpi,enhanced
same,phospho-tau in the hippocampus,5×FAD Tg mice [2],suppression
same,total level of tau protein,5×FAD Tg mice [2],without affecting
